Experimental data as given in patent US4591599A, “Perfluoropyrrolizines and emulsions thereof useful as blood substitutes” (The Green Cross Corporation, priority 1984, dated 1986).

What was measured:
[1] = system: Wister-strain male rats; experiment: Acute toxicity test; type: in vivo; settings: 100 ml/kg-body weight, intravenous, observed for one week
Experimental: The acute toxicity test on the preparations of the present invention was carried out using the preparations of the present invention shown in Table 4 which had been physiologically isotonized. The test animals used were Wister-strain male rats (weighing 100-120 g).

[2] = Distribution of perfluoro-compound in organs (gas chromatography); type: in vivo, Wister-strain male rats; settings: 4 g/kg, tail vein, rats

SMILES	death cases [1]	adverse influence on the liver or spleen organ ([2]; 3 months)	uptake by and disappearance from the reticulo-endothelial organs ([2]; 3 months)	Residual Rate of perfluorobicyclo compound ([2]; Liver, 1 week after administration)	Residual Rate of perfluorobicyclo compound ([2]; Liver, 2 weeks after administration)	Residual Rate of perfluorobicyclo compound ([2]; Liver, 3 months after administration)	Residual Rate of perfluorobicyclo compound ([2]; Liver, 4 weeks after administration)	Residual Rate of perfluorobicyclo compound ([2]; Spleen, 1 week after administration)	Residual Rate of perfluorobicyclo compound ([2]; Spleen, 2 weeks after administration)	Residual Rate of perfluorobicyclo compound ([2]; Spleen, 3 months after administration)	Residual Rate of perfluorobicyclo compound ([2]; Spleen, 4 weeks after administration)
FC(F)(F)C1(F)N2C(F)(F)C(F)(F)C(F)(F)C(F)(F)C2(F)C(F)(F)C(F)(F)C1(F)F (stereo not drawn) [Example 1, perfluoro-4-methyloctahydroquinolidine]	no death case	no evidence of adverse influence on the liver or spleen organ	taken up in greater amounts by the reticulo-endothelial organs shortly after the administration, but soon disappeared rapidly	19.92%	8.66%	0.30%	1.88%	11.61%	9.33%	0.09%	2.45%
FC(F)(F)C(F)(F)C1(F)N2C(F)(F)C(F)(F)C(F)(F)C(F)(F)C2(F)C(F)(F)C(F)(F)C1(F)F (stereo not drawn) [Example 101, perfluoro-4-ethyloctahydroquinolidine]	no death case	–	–	–	–	–	–	–	–	–	–
